Measurements published in ChEMBL document CHEMBL5634136 (Eur J Med Chem, 2023).
Calls of active or inactive are those of the source. The calls are words filed in the database; no cut-off is given here.

What was measured:
[1] = target: T1, Epidermal growth factor receptor (Homo sapiens, UniProt P00533, C797S/EX19DEL/T790M); test: Inhibition of recombinant EGFR Del19/T790M/C797S mutant (unknown origin) in presence of ATP by TR-FRET assay
[2] = Antiproliferative activity against mouse KC-0116 cells assessed as inhibition of cell growth incubated for 72 hrs by MTT assay; assay type: functional, cell-based; settings: KC-0116, 72 h
[3] = Antiproliferative activity against mouse KC-0122 cells assessed as inhibition of cell growth incubated for 72 hrs by MTT assay; assay type: functional, cell-based; settings: KC-0122, 72 h
[4] = test system: A-431; test: Antiproliferative activity against human A-431 cells harboring wild type EGFR assessed as inhibition of cell growth incubated for 72 hrs by MTT assay; assay type: functional, cell-based; settings: A-431, 72 h
[5] = test system: HCC827; test: Antiproliferative activity against human HCC827 cells harboring EGFR Del19 mutant assessed as inhibition of cell growth incubated for 72 hrs by MTT assay; assay type: functional, cell-based; settings: HCC827, 72 h
[6] = test system: NCI-H1975; test: Antiproliferative activity against human NCI-H1975 cells harboring EGFR L858R/T790M mutant assessed as inhibition of cell growth incubated for 72 hrs by MTT assay; assay type: functional, cell-based; settings: NCI-H1975, 72 h
[7] = test system: HepG2; test: Antiproliferative activity against human HepG2 cells harboring VEGFR assessed as inhibition of cell growth incubated for 72 hrs by MTT assay; assay type: functional, cell-based; settings: HepG2, 72 h
[8] = target: Epidermal growth factor receptor (Mus musculus) (UniProt Q01279); test: Inhibition of EGFR in mouse KC-0116 cells assessed as downregulation of EGFR phosphorylation level incubated for 24 hrs by Western blotting analysis; assay type: cell-based
Chain of Epidermal growth factor receptor (Mus musculus) (Q01279 whole entry): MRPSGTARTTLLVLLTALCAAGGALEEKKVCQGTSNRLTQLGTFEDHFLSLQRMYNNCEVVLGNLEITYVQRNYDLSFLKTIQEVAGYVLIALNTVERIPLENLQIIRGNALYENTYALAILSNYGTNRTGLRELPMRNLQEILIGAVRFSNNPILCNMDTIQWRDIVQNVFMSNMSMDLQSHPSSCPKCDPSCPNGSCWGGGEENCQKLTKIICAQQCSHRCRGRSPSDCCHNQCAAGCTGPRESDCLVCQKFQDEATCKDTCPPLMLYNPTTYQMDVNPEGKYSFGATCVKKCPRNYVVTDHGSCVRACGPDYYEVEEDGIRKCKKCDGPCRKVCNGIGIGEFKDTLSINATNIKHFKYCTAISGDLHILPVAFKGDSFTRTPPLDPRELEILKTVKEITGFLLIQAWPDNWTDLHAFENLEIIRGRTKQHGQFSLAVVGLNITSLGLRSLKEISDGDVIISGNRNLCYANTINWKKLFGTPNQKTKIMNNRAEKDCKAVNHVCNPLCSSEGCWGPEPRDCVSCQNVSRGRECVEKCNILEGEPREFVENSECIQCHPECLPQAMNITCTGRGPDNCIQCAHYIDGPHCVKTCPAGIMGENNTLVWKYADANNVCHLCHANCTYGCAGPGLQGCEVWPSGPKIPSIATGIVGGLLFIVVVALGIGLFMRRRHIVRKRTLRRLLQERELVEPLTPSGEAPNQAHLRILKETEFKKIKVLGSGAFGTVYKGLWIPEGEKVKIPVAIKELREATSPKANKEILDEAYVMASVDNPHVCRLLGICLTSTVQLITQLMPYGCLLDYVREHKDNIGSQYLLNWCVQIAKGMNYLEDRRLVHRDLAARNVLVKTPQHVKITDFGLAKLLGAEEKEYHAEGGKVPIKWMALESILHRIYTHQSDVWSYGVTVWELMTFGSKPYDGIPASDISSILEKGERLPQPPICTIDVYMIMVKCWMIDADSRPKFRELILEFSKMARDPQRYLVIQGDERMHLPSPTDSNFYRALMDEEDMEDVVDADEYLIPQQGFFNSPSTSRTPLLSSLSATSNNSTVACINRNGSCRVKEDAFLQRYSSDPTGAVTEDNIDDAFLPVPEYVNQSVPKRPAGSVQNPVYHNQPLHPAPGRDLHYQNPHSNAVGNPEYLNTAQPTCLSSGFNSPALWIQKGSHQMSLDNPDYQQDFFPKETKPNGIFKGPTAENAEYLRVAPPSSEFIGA

[9] = target: Epidermal growth factor receptor (Mus musculus) (UniProt Q01279); test: Inhibition of EGFR in mouse KC-0122 cells assessed as downregulation of EGFR phosphorylation level incubated for 24 hrs by Western blotting analysis; assay type: cell-based
[10] = target: Epidermal growth factor receptor (Mus musculus) (UniProt Q01279); test: Inhibition of EGFR in mouse KC-0116 cells assessed as downregulation of AKT protein expression level incubated for 24 hrs by Western blotting analysis; assay type: cell-based
[11] = target: Epidermal growth factor receptor (Mus musculus) (UniProt Q01279); test: Inhibition of EGFR in mouse KC-0122 cells assessed as downregulation of AKT protein expression level incubated for 24 hrs by Western blotting analysis; assay type: cell-based
[12] = target: Epidermal growth factor receptor (Mus musculus) (UniProt Q01279); test: Inhibition of EGFR in mouse KC-0116 cells assessed as downregulation of ERK protein expression level incubated for 24 hrs by Western blotting analysis; assay type: cell-based
[13] = target: Epidermal growth factor receptor (Mus musculus) (UniProt Q01279); test: Inhibition of EGFR in mouse KC-0122 cells assessed as downregulation of ERK protein expression level incubated for 24 hrs by Western blotting analysis; assay type: cell-based
[14] = target: Epidermal growth factor receptor (Mus musculus) (UniProt Q01279); test: Inhibition of EGFR in mouse KC-0116 cells assessed as downregulation of EGFR phosphorylation level at 1 uM incubated for 24 hrs by Western blotting analysis; assay type: cell-based
[15] = target: Epidermal growth factor receptor (Mus musculus) (UniProt Q01279); test: Inhibition of EGFR in mouse KC-0116 cells assessed as downregulation of AKT protein expression level at 1 uM incubated for 24 hrs by Western blotting analysis; assay type: cell-based
[16] = target: Epidermal growth factor receptor (Mus musculus) (UniProt Q01279); test: Inhibition of EGFR in mouse KC-0116 cells assessed as downregulation of ERK protein expression level at 1 uM incubated for 24 hrs by Western blotting analysis; assay type: cell-based
[17] = target: Epidermal growth factor receptor (Mus musculus) (UniProt Q01279); test: Inhibition of EGFR in mouse KC-0122 cells assessed as downregulation of EGFR phosphorylation level at 1 uM incubated for 24 hrs by Western blotting analysis; assay type: cell-based
[18] = target: Epidermal growth factor receptor (Mus musculus) (UniProt Q01279); test: Inhibition of EGFR in mouse KC-0122 cells assessed as downregulation of AKT protein expression level at 1 uM incubated for 24 hrs by Western blotting analysis; assay type: cell-based
[19] = target: Epidermal growth factor receptor (Mus musculus) (UniProt Q01279); test: Inhibition of EGFR in mouse KC-0122 cells assessed as downregulation of ERK protein expression level at 1 uM incubated for 24 hrs by Western blotting analysis; assay type: cell-based
[20] = target: T1, Epidermal growth factor receptor; test: Inhibition of EGFR Del19/T790M/C797S mutant (unknown origin)
[21] = target: Epidermal growth factor receptor (Homo sapiens, UniProt P00533, C797S/L858R/T790M); test: Inhibition of EGFR L858R/T790M/C797S mutant (unknown origin)
Chain of Epidermal growth factor receptor (Homo sapiens, UniProt P00533, C797S/L858R/T790M) (P00533 25-1210 T790M/C797S/L858R limits assumed): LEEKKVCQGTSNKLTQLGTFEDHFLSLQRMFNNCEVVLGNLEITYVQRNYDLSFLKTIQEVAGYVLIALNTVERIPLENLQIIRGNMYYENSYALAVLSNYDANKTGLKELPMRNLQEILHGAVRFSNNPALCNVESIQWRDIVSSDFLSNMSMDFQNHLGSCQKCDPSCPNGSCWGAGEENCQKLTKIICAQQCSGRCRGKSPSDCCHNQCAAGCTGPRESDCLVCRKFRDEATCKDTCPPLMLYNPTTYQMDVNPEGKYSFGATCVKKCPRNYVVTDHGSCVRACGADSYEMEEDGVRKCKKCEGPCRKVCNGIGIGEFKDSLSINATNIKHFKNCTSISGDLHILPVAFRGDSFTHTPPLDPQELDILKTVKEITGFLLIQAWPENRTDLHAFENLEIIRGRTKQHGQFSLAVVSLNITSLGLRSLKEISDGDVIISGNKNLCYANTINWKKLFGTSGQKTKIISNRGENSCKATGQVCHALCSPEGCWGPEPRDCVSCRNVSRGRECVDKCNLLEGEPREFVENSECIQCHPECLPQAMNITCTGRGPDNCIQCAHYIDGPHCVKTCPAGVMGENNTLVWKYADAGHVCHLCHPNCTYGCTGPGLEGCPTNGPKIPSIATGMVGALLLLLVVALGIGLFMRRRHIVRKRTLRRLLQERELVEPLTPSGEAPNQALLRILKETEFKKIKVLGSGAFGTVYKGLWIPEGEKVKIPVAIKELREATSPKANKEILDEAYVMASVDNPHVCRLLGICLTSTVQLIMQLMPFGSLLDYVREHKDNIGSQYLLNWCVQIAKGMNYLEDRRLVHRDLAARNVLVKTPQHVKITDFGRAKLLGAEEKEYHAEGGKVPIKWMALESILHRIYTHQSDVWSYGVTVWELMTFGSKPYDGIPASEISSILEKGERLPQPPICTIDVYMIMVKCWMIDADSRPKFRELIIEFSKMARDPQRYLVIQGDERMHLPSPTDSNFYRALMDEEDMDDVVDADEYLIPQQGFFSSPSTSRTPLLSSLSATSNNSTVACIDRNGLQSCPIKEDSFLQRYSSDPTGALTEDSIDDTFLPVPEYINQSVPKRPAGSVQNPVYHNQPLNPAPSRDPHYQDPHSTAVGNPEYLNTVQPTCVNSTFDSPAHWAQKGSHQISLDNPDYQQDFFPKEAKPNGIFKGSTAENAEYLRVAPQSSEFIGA

[22] = test system: KC-0116; test: Induction of cell cycle arrest in mouse KC-0116 cells assessed as accumulation of cells at G1 phase at 1 uM incubated for 24 hrs by RNase/PI staining based flow cytometry; assay type: functional
[23] = Induction of apoptosis in mouse KC-0116 cells assessed as viable cells at 0.1 uM incubated for 48 hrs by annexin V-FITC/ PI staining based flow cytometry (reference value: 93.27 %); assay type: functional; settings: read-out: Activity
[24] = Induction of apoptosis in mouse KC-0116 cells assessed as early apoptotic cells at 0.1 uM incubated for 48 hrs by annexin V-FITC/ PI staining based flow cytometry (reference value: 8.09 %); assay type: functional
[25] = Induction of apoptosis in mouse KC-0116 cells assessed as late apoptotic cells at 0.1 uM incubated for 48 hrs by annexin V-FITC/ PI staining based flow cytometry (reference value: 1 %); assay type: functional
[26] = Induction of apoptosis in mouse KC-0116 cells assessed as necrotic cells at 0.1 uM incubated for 48 hrs by annexin V-FITC/ PI staining based flow cytometry (reference value: 0.04 %); assay type: functional
[27] = Induction of apoptosis in mouse KC-0116 cells assessed as viable cells at 1 uM incubated for 48 hrs by annexin V-FITC/ PI staining based flow cytometry (reference value: 93.27 %); assay type: functional; settings: Mus musculus, KC-0116, read-out: Activity
[28] = Induction of apoptosis in mouse KC-0116 cells assessed as early apoptotic cells at 1 uM incubated for 48 hrs by annexin V-FITC/ PI staining based flow cytometry (reference value: 8.09 %); assay type: functional
[29] = Induction of apoptosis in mouse KC-0116 cells assessed as late apoptotic cells at 1 uM incubated for 48 hrs by annexin V-FITC/ PI staining based flow cytometry (reference value: 1 %); assay type: functional
[30] = Induction of apoptosis in mouse KC-0116 cells assessed as necrotic cells at 1 uM incubated for 48 hrs by annexin V-FITC/ PI staining based flow cytometry (reference value: 0.04 %); assay type: functional
[31] = Induction of apoptosis in mouse KC-0116 cells assessed as viable cells at 10 uM incubated for 48 hrs by annexin V-FITC/ PI staining based flow cytometry (reference value: 93.27 %); assay type: functional; settings: read-out: Activity
[32] = Induction of apoptosis in mouse KC-0116 cells assessed as early apoptotic cells at 10 uM incubated for 48 hrs by annexin V-FITC/ PI staining based flow cytometry (reference value: 8.09 %); assay type: functional
[33] = Induction of apoptosis in mouse KC-0116 cells assessed as late apoptotic cells at 10 uM incubated for 48 hrs by annexin V-FITC/ PI staining based flow cytometry (reference value: 1 %); assay type: functional
[34] = Induction of apoptosis in mouse KC-0116 cells assessed as necrotic cells at 10 uM incubated for 48 hrs by annexin V-FITC/ PI staining based flow cytometry (reference value: 0.04 %); assay type: functional
[35] = Antitumor activity against mouse KC-0116 cells xenografted in BALB/c mouse assessed as tumor growth inhibition at 10 mg/kg,po administrated once daily for 10 days relative to control; assay type: functional; settings: KC-0116, 240 h, time 10 day, read-out: TGI
[36] = Antitumor activity against mouse KC-0116 cells xenografted in BALB/c mouse assessed as tumor growth inhibition at 40 mg/kg,po administrated once daily for 10 days relative to control; assay type: functional; settings: KC-0116, 240 h, time 10 day, read-out: TGI
[37] = test system: KC-0116; test: Antitumor activity against mouse KC-0116 cells xenografted in BALB/c mouse assessed as reduction in tumor weight at 40 mg/kg,po administrated once daily for 10 days; assay type: functional, organism-based; settings: time 10.0 day
[38] = Toxicity in BALB/c mouse xenografted with mouse KC-0116 cells assessed as change in body weight at 10 mg/kg,po administrated once daily for 10 days; assay type: organism-based; settings: in vivo, 240 h, time 10 day
[39] = Toxicity in BALB/c mouse xenografted with mouse KC-0116 cells assessed as change in body weight at 40 mg/kg,po administrated once daily for 10 days; assay type: organism-based; settings: in vivo, 240 h, time 10 day

T1 sequence (P00533 whole entry, looked up, stated change not applied): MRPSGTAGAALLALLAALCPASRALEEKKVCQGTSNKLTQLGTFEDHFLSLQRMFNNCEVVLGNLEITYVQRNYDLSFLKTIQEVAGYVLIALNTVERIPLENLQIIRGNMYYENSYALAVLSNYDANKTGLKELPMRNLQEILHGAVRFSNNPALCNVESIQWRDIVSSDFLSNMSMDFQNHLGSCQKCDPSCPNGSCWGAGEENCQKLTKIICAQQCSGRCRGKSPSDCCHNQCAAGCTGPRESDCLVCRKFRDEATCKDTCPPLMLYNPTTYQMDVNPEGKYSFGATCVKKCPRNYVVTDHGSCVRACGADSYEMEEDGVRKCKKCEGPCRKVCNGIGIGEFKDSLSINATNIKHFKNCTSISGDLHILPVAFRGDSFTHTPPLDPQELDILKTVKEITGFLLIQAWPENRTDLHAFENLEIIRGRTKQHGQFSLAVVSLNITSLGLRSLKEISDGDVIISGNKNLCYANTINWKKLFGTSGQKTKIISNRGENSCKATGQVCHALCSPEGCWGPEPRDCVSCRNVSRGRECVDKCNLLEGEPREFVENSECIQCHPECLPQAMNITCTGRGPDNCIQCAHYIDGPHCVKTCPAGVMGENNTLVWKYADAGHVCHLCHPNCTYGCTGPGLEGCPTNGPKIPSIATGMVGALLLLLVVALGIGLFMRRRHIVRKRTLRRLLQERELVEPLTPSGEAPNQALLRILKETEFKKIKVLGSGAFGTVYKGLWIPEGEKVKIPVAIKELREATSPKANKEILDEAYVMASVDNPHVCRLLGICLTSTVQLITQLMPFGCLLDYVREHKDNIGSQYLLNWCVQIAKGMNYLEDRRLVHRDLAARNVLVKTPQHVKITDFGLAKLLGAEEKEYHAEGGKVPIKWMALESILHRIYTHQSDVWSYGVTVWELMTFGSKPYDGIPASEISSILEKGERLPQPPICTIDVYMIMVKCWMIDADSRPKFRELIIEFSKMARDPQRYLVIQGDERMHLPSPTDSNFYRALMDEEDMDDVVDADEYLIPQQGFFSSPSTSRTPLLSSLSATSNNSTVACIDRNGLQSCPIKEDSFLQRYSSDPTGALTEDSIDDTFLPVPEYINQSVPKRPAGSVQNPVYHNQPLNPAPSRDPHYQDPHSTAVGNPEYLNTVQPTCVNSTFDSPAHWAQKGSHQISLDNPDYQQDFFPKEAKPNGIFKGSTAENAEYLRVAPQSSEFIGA

SMILES: CC(C)n1c2cc(Nc3ccnc(-c4cnn(S(=O)(=O)C5CC5)c4)n3)ncc2c2c(OCC(F)(F)F)cc(N3CCN(C)CC3)cc21
- IC50 [1]: 0.28 nM

SMILES: CN(C)C1CCN(c2ccc(Nc3nccc(-c4cn(C)c5ccccc45)n3)cc2NS(C)(=O)=O)CC1
- IC50 [2]: 160 nM
- IC50 [3]: 170 nM
- IC50 [4]: 1990 nM
- IC50 [5]: 160 nM
- IC50 [6]: 1000 nM
- IC50 [7]: 1780 nM
- inhibition [8]: Dose-Dependent Effect
- inhibition [9]: Dose-Dependent Effect
- inhibition [10]: Dose-Dependent Effect
- inhibition [11]: Dose-Dependent Effect
- inhibition [12]: Dose-Dependent Effect
- inhibition [13]: Dose-Dependent Effect
- inhibition [14]: Active
- inhibition [15]: Active
- inhibition [16]: Active
- inhibition [17]: Active
- inhibition [18]: Active
- inhibition [19]: Active
- IC50 [20]: 18 nM
- IC50 [21]: 113 nM
- Activity [22]: Active
- viability at 0.1 µM [23]: 92.9%
- Activity [24]: 5.5%
- Activity [25]: 1.42%
- Activity [26]: 0.08%
- viability at 1 µM [27]: 72.9%
- Activity [28]: 25.29%
- Activity [29]: 2.66%
- Activity [30]: 0.17%
- viability at 10 µM [31]: 1.53%
- Activity [32]: 91.42%
- Activity [33]: 0.77%
- Activity [34]: 0.09%
- inhibition in vivo at 10 mg/kg [35]: 28.4%
- inhibition in vivo at 40 mg/kg [36]: 77.6%
- Activity [37]: Active
- Activity [38]: Non-Toxic
- Activity [39]: Non-Toxic
